Data set [1] deals with CYP3A. Briefly: Western blot analysis of rat hepatic proteins after PB treatment. The data set is classed as in vivo. Conditions: rat hepatic microsomal proteins, PB treated vs control; two sets; mean and difference from the mean. Here is the method:
(§1) SDS-PAGE was carried out on 10% or 15% gels. The separated proteins were electroblotted onto cellulose membrane and Western blot analyses were carried out using horseradish peroxidase-system with electrochemiluminescent substrates.
(§2) This microarray result was obtained by combining results from Control 1 and PB 1 assays and Control 2 and PB 2 assays. Expression levels of CYP2B1/2B2, CYP2B1, COX-2, CYP2D, CYP3A1/2/23, CYP2C11 and G3PDH in Rat #1 (Control 1), Rat #2 (PB 1), Rat #3 (Control 2) and Rat #4 (PB 2) were verified by Western blot analyses of microsomal and cytosolic proteins. Protein bands obtained by Western blot analyses were quantitated using a densitometer (Molecular Dynamics). […] COX-2 expression usually detected in microsomes also detected in cytosol. The cytosolic COX-2 levels were normalized by G3PDH levels.
(Immunoblotting shows a protein as a band on a membrane.)

The test system of data set [2] is CYP2D. The data set is described as above. The data set is classed as in vivo. The settings on record: rat hepatic microsomal proteins, PB treated vs control; two sets; mean and difference from the mean. As for the experimental part: as §1, §2
Data set [3] deals with Alpha-actin. The settings on record: rat hepatic proteins after PB treatment; 500 μg/ml IgG (ascites fluid); Flag internal control.
The test system of data set [4] is CYP3A (CYP3A1/2/23). The settings on record: anti-serum spots, IgG concentration not given.
Data set [5] deals with Tubulin-beta. The settings on record: rat hepatic proteins after PB treatment; 500 μg/ml IgG; Flag internal control.
Data set [6] deals with CYP2B1/2B2. Briefly: Western blot analysis of rat hepatic proteins after PB treatment. Format: in vivo. Also on record: key: Highly Induced: Not detected in control but strong band after PB treatment.; Moderately Induced: Not detected in control but bands with a medium intensity detected after PB treatment. Conditions: rat hepatic microsomal proteins, PB treated vs control. As for the experimental part: as §1, §2

For data set [7], the system named is Tubulin-alpha. Conditions: rat hepatic proteins after PB treatment, 500 μg/ml IgG (ascites fluid), Flag internal control.

Several values for one entry are separate records, joined by “and”; a condition that tells them apart may be missing. Equal entries are not always repeated. Where two headings read alike, the source gives them in different places. Marks after values point to notes of the source that are not given here.

The source of these data is US8765641B2, “Chip production, hybridization and data interpretation for antibody and protein microarrays” (Detroit R&D, Inc., priority 2004, dated 2014).

On to `CCC1(c2ccccc2)C(=O)NC(=O)NC1=O` [phenobarbital], for which, in data set [1], the “fold-increase of protein expression level, Western Blot Analysis, CYP3A” value was 7.00 ± 4.80^d fold. The “fold-increase of protein expression level, Western Blot Analysis, CYP2D” value in data set [2] was “failed to increase”. For the same compound, the “Fold-Change of Protein Expression Level, Alpha-actin” value in data set [3] was determined as 0.8 fold. Besides, the “CYP3A expression after phenobarbital treatment, array analysis” value in data set [4] is given as “increased higher than two-fold”. Besides, the “Fold-Change of Protein Expression Level, Tubulin-beta” value in data set [5] is on record as 0.7 fold. Also, in data set [6], the “fold-increase of protein expression level, Western Blot Analysis, CYP2B1/2B2” value is recorded as “Highly Induced^b”. In addition, the “Fold-Change of Protein Expression Level, Tubulin-alpha” value is 1.7 fold and 1.7^a fold in data set [7]; 1.7 fold in data set [7] (listed as PB).
